Test results from US9131688B2, “Strigolactam derivatives as plant growth regulating compounds” (Syngenta Participations AG, priority 2011, dated 2015).

Columns and labels:
Format in all cases: in vivo
[1] = test system: Orobanche cumana Wallr. seeds (race 'F'); assay: Germination of preconditioned Orobanche cumana seeds on glass fiber filter paper in petri dishes; details: Table 5; 1.0 mg l^-1; seed lot IN153; mean, N = 5 x 100 seeds
[2] = test system: Orobanche cumana Wallr. seeds (race 'F'); assay: as above; details: for Germination (%): mean, N = 5 x 100 seeds; for Germination inducing effect on Orobanche cumana seeds (summary in words): summary of Tables 3 to 6
Description: The effect of compounds of Formula (I) on germination of Orobanche cumana Wallr. seeds was evaluated on glass fiber filter paper (GFFP) in petri dishes. Seeds were preconditioned at moisture and suitable temperature to become responsive to the specific chemical germination stimulants.
Test compounds were dissolved in DMSO (10 000 mg 1^−1) and stored at room temperature in a desiccators with desiccants. The stock solutions were dissolved with deionised water to the appropriate final test concentration.
Seeds of O. cumana race ‘F’ were collected from a sunflower field in Manzanilla (Seville, Spain) in 2006 (IN146) and 2008 (IN153), respectively and stored at room temperature. To separate seeds from heavy organic debris, a modified sucrose floatation technique as described by Hartman & Tanimonure (Plant Disease (1991), 75, p. 494) was applied. Seeds were filled into a separation funnel and stirred in water. When seeds floated to the surface, the water fraction containing heavy debris was discarded. Seeds were re-suspended in 2.5M sucrose solution (specific gravity of 1.20) and heavy debris was allowed to settle down for 60 min. After removing debris, seeds were disinfected in 1% sodium hypochlorite solution and 0.025% (v/v) Tween 20 for 2 min. The seeds were decanted onto two layers of cheesecloth, rinsed with sterile deionised water and re-suspended in sterile deionised water. Two ml of the seed suspension containing approximately 150-400 seeds were spread evenly on two layers of sterile glass fiber filter paper disc ([…]) in Petri dishes (Ø9 cm). After wetting the discs with 3 ml sterile deionised water, petri dishes were sealed with parafilm. Seeds were incubated for 10 days at 20° C. in the dark for seed conditioning. The upper disc with conditioned seeds was briefly dried, transferred to a petri dish lined with a dry GFFP disc, and wetted with 6 ml of the appropriate test solution. The compounds of formula (I) were tested at concentrations of 0.001, 0.01, and 0.1 mg 1^−1. The strigolactone analogue GR24 was included as positive control and 0.001% DMSO as negative control. All treatments were tested in five replicates. Seeds were re-incubated at 20° C. in the dark and examined for germination 10 days later. The radicles of germinated seeds were stained for 5 min with blue ink (MIGROS, Switzerland) in 5% acetic acid according to Long et al. Seed Science Research (2008), 18, p. 125). After staining, seeds were photographed using a camera stand mounted with a digital SLR camera (Canon EOS 5D). Germination of 100 seeds per replicate was evaluated on digital images. Seeds were considered germinated when the radicle protruded from the seed coat.

[3] = test system: Brassica oleracea cv Botrytis (common cauliflower) seeds; assay: Standard paper germination test for Brassica (cauliflower seeds, suboptimal conditions); details: 25 μM, 20° C., dark; for stimulation (extra germination compared to the DMSO treatment, expressed as percentage of the DMSO treatment): tropical cauliflower 3C150, seed batch 11B295; for acceleration (hours faster than the DMSO treatment to reach 50% of total germination) / t50 (time needed to reach 50% of total germination): tropical cauliflower 3C150, seed batch 11B552
Description: The effect of compounds of Formula (I) on the germination of Brassica oleracea cv Botrytis or common cauliflower was tested on two types of cauliflowers: temperate types and tropical types. These two types were chosen because they display different sensitivities to the light conditions and temperature during germination. Germination of a sensitive temperate type is inhibited by light at 10° C. while for the tropical types germination at 20° is stimulated by the presence of light.
The temperate seed batches tested are part of commercially produced seed batches of various varieties which are known to be sensitive to light at 10° C. These seeds were harvested and cleaned according standard commercial procedures. Ready seed batches were used (Ready indicates the processing level of these seeds: they have been cleaned and sized but received no other treatments). The tropical seed batches tested are part of seed batches produced as basic seed (for maintenance of the parental line) and were processed accordingly.
Germination was assessed using the standard paper germination test for Brassica: Fifty seeds were placed on blue germination paper, which was moistened with the appropriate solutions, in closed oblong germination boxes. Each condition was tested in duplo. Germination boxes were placed in controlled germination cabinets with the appropriate temperature and light conditions. Germination of seeds was counted at regular intervals. Seeds were considered to be germinated when the radical had protruded the testa and endosperm (radical size approximately 1 mm). Germination kinetics were analyzed using the Germinator analysis tool in order to obtain the parameters: Gmax (maximum germination) and t50 (time needed to reach 50% of the Gmax). The Germinator analysis tool is an add-in in for excel developed by the University of Wageningen: Joosen, R. V. L., J. Kodde, et al. (2010). (“Germinator: A Software Package for High-Throughput Scoring and Curve Fitting of Arabidopsis Seed Germination.” The Plant Journal 62(1): 148-159.)
Test compounds were dissolved in DMSO at a concentration of 50 mM and stored at −20° C. The strigolactone analogue GR24 (commercially available as a racemic mixture of 2 diastereoisomers, referred to as “synthetic strigolactone GR-24” and first prepared by Johnson A. W. & all, Journal of the Chemical Society, Perkin Transactions 1, 1981, page 1734-1743) was included as positive control. Germination solutions were prepared by diluting the stock solutions with demineralized water till 25 μM. As control solutions demineralized water and a 0.05% v/v DMSO solution were used.

[4] = Table 5, 0.01 mg l^-1, seed lot IN153
[5] = Table 5, 0.1 mg l^-1, seed lot IN153
[6] = Table 7, tropical cauliflower 3C150, seed batch 11B295 (Chili 2011)
[7] = Table 8, tropical cauliflower 3C150, seed batch 11B552 (South Africa 2010)
[8] = Table 3, 0.001 mg l^-1, seed lot IN146, 10 days at 20° C. in the dark
[9] = Table 3, 0.01 mg l^-1, seed lot IN146
[10] = Table 3, 0.1 mg l^-1, seed lot IN146
[11] = Table 4, 0.001 mg l^-1, seed lot IN153
[12] = Table 4, 0.01 mg l^-1, seed lot IN153
[13] = Table 4, 0.1 mg l^-1, seed lot IN153
[14] = Table 6, 0.001 mg l^-1, seed lot IN153
[15] = Table 6, 0.01 mg l^-1, seed lot IN153
[16] = Table 6, 0.1 mg l^-1, seed lot IN153

| SMILES | Germination (%) [1] [%] | Germination (%) [2, 4] [%] | Germination (%) [2, 5] [%] | Germination inducing effect on Orobanche cumana seeds (summary in words) [2] | Gmax (total germination) [3, 6] [%] | stimulation (extra germination compared to the DMSO treatment, expressed as percentage of the DMSO treatment) ([3]; Table 7) [%] | Gmax (total germination) [3, 7] [%] | acceleration (hours faster than the DMSO treatment to reach 50% of total germination) ([3]; Table 8) [h] | t50 (time needed to reach 50% of total germination) ([3]; Table 8) [h] | Germination (%) [2, 8] [%] | Germination (%) [2, 9] [%] | Germination (%) [2, 10] [%] | Germination (%) [2, 11] [%] | Germination (%) [2, 12] [%] | Germination (%) [2, 13] [%] | Germination (%) [2, 14] [%] | Germination (%) [2, 15] [%] | Germination (%) [2, 16] [%] | Germination (%) ([2]; Table 5, 0.001 mg l^-1, seed lot IN153) |
| --- | --- | --- | --- | --- | --- | --- | --- | --- | --- | --- | --- | --- | --- | --- | --- | --- | --- | --- | --- |
| CC1=C[C@@H](O/C=C2/C(=O)N[C@@H]3C4=CCCC[C@H]4C[C@H]23)OC1=O [Compound B2, (3E,3aR,4aS,8bS)-3-[[(2S)-4-methyl-5-oxo-2H-furan-2-yl]oxymethylene]-1,3a,4,4a,5,6,7,8b-octahydroindeno[1,2-b]pyrrol-2-one] | 91.8 | 80.4 | 89.2 | germination inducing effect |  |  |  |  |  |  |  |  |  |  |  |  |  |  |  |
| CC1=CC(O/C=C2/C(=O)N[C@@H]3C4=C(CCCC4(C)C)C[C@H]23)OC1=O (stereo partly drawn) [Compound P1, (3E,3aR,8bS)-8,8-dimethyl-3-[(4-methyl-5-oxo-2H-furan-2-yl)oxymethylene]-3a,4,5,6,7,8b-hexahydro-1H-indeno[1,2-b]pyrrol-2-one] |  |  |  | germination inducing effect | 55.0 | 80.0 | 95.0 | 6.6 | 74.3 | 88 | 88 | 88.4 |  |  |  |  |  |  |  |
| CC1=C[C@H](O/C=C2/C(=O)N[C@@H]3C4=CCCC[C@H]4C[C@H]23)OC1=O [Compound P2, (3E,3aR,4aS,8bS)-3-[[(2R)-4-methyl-5-oxo-2H-furan-2-yl]oxymethylene]-1,3a,4,4a,5,6,7,8b-octahydroindeno[1,2-b]pyrrol-2-one] |  |  |  | germination inducing effect |  |  |  |  |  |  |  |  | 92.6 | 91.0 | 91.0 |  |  |  |  |
| CC1=CC(O/C=C2/C(=O)N[C@@H]3C4=CCC[C@H]4C[C@H]23)OC1=O (some centres unmarked) [Compound P4, 3E 3-[[4-methyl-5-oxo-2H-furan-2-yl]oxymethylene]-1,3a,4,4a,5,6,7b-hexahydropentaleno[1,2-b]pyrrol-2-one] |  |  |  | germination inducing effect |  |  |  |  |  |  |  |  |  |  |  | 73.4 | 82.6 | 68.4 |  |
| CC1=C[C@H](O/C=C2/C(=O)N(C(=O)OC(C)(C)C)[C@@H]3C4=CCC[C@H]4C[C@H]23)OC1=O [Compound P5, Tert-butyl (3E,3aR,4aS,7bS)-3-[[4-methyl-5-oxo-2H-furan-2-yl]oxymethylene]-2-oxo-3a,4,4a,5,6,7b-hexahydropentaleno[1,2-b]pyrrole-1-carboxylate] |  |  |  |  |  |  |  |  |  |  |  |  |  |  |  | 90.6 | 80.8 | 89.6 |  |
| CC1=C[C@H](O/C=C2/C(=O)O[C@@H]3c4ccccc4C[C@H]23)OC1=O [GR24, reference compound] |  | 86.6 | 95.2 |  | 73.0 | 140.0 | 100.0 | 8.7 | 72.2 | 20.4 | 61.0 | 86.2 | 67 | 65 | 78.4 | 26 | 51 | 84.2 | 88 |
